row,Structure (SMILES),melting point
1,O=C(Cc1ccc(Cl)cc1)Nc1cccc2nc(N[C@@H]3CCc4ccccc43)ccc12,170 °C
2,CCCCc1cc2cc(N)ccn2c1C(=O)c1ccc(OCCCN(CCCC)CCCC)cc1,88 to 89 °C
3,Cn1c2ccccc2c2nc3c(CO)cccc3nc21,191 to 194 °C
4,O=[N+]([O-])N=C1SCCN1Cc1ccncc1,151 to 152 °C
5,O=C(c1ccc(Cl)cc1)c1cc(Cl)cc2c1OCC2C(=O)O (stereo not drawn),161 to 163 °C
6,CCCCCCCCCCCCCCCCOC(=O)C(C)Nc1cccc(O)c1 (stereo not drawn),35 to 40 °C
7,CCNC(=O)n1nc(Oc2c([N+](=O)[O-])cc([N+](=O)[O-])cc2C(F)(F)F)cc1C,169 to 171 °C
8,Oc1ccc(Oc2cnc3ccccc3c2)cc1,250 °C
9,CC1(C)Oc2ccc(CN)cc2[C@@H](N2CCCC2=O)[C@@H]1O (relative stereo),191 to 193 °C
10,COC(=O)c1cn(S(=O)(=O)c2ccccc2)c2ncc([N+](=O)[O-])cc12,195 to 196 °C
11,CC(C)(C)OC(=O)N[C@@H](CCC(N)=O)C(=O)N1CCN(Cc2ccccc2)CC1,158 to 159 °C
12,COC(=O)c1ccnc(N2CCN(Cc3ccncc3)C2=O)c1,111 to 113 °C
13,CSC(=N)Nc1nc(C(C)(C)C)c(O)c(C(C)(C)C)n1,163 to 165 °C
14,CC(=O)NC12CC3(C)CC(C)(CC(CO)(C3)C1)C2,152 to 153 °C
15,CC(=O)c1ccc(Cn2ccc3c4c(N)nc(N)nc4ccc32)cc1,224 to 225 °C
16,CCc1cc(-c2nnc3c4ccccc4c(OCc4ncnn4C)nn23)no1,240 to 242 °C
17,COc1cc(CC(=O)O)ccc1OCCCc1cn(-c2ccc(C(F)(F)F)cn2)nc1C(C)C,134 to 135 °C
18,COc1cc2[nH]c(=O)c([N+](=O)[O-])c(C(F)(F)F)c2cc1OC,270 °C
19,COC(=O)CCON1C(C)(C)CC(OCc2ccc(COC3CC(C)(C)N(OCCC(=O)OC)C(C)(C)C3)cc2)CC1(C)C,84 to 85 °C
20,Fc1ccc(Nc2nc(N/N=C/c3c(F)cccc3F)nc(N3CCOCC3)n2)cc1,156 °C
21,Cc1noc(-c2ccc(F)cc2N)n1,146 to 148 °C
22,O=C(O)CCCc1cccc(C(=O)c2ccc(Cl)cc2)c1,94 °C
23,Cc1nnc(C)c(-c2c(F)cc(F)cc2F)c1-c1cccs1,100 to 102 °C
24,Cc1ccc2c(c1)c1cc(Br)ccc1n2C(=O)OC(C)(C)C,96 °C
25,COc1ccc(CCCC(=O)O)c(Cl)c1Cl,120 to 123 °C
26,CCCCC(=N)NC(=S)Nc1cccc(Cl)c1,142 to 145 °C

row,Structure (SMILES),melting point
1,C=CC(C)n1ncc(-c2ccc(S(C)(=O)=O)cc2)c(-c2ccc(F)cc2)c1=O (stereo not drawn),140 to 142 °C
2,NCCCCNC(=O)COc1ccc2ccccc2c1,58 °C
3,N#Cc1cncnc1N1CCc2ccccc2CC1,148 to 150 °C
4,CCOc1cc(N)c(Cl)cc1C(=O)NCCC1CN(Cc2ccccc2)CCO1 (stereo not drawn),149 to 151 °C
5,N#Cc1cccc(NC(=O)Nc2ccc(-n3nc(C(F)(F)F)cc3C(F)(F)F)cc2)c1,204 to 205 °C
6,C=CC12CCC3(C)C(F)C(O)CC3C1CCc1cc(O)ccc12 (stereo not drawn),94 to 98 °C
7,S=C=NCc1ccc(Cl)nc1,22 °C
8,O=C1c2ccccc2C(=O)N1Cc1cc(=O)c(OC(c2ccccc2)c2ccccc2)cn1OC(c1ccccc1)c1ccccc1,145 to 147 °C
9,CCCCOc1ccc(S(C)(=O)=O)cc1C(N)=O,146 to 150 °C
10,NNC(=O)C1(Cl)CC1(Cl)Cl (stereo not drawn),122 to 123 °C
11,CC(C)(C)OC(=O)N1CCn2c(c(C(N)=O)c(C#N)c2C2CC2)C1,221 to 222 °C
12,CC1(C)Oc2ccc(Br)cc2C(n2ccccc2=O)=C1CBr,175 °C
13,O=C(OCCCCCCO)c1ccc(Oc2c3c(c(Oc4ccc(C(=O)OCCCCCCO)cc4)c4ccccc24)C(=O)c2ccccc2C3=O)cc1,172 to 173 °C
14,COC(=O)CCc1cc(=O)n2nc(C)nc2[nH]1,222 to 225 °C
15,CCOC(=O)Cc1csc(-c2ccccc2O)n1,35.5 to 36.5 °C
16,COc1ccc2cccc(Br)c2c1,54 to 58 °C
17,CN(C)S(=O)(=O)c1cc(-c2ccccc2)ccc1S(N)(=O)=O,197 to 200 °C
18,CCOc1ccc(-c2csc(-c3cccc(C(=O)OC)c3)n2)cc1,192 to 193 °C
19,O=[N+]([O-])c1ccc2oc(CO)cc2c1,115 to 116 °C
20,COc1ccccc1NC(=O)CN1C(=O)c2ccccc2C1=O,211 °C
21,CNc1nc(-c2cccc(NC(=O)c3ccccc3)c2)c2cc(OC)c(OC)cc2n1,146 to 148 °C
22,NC(=O)c1cccc2nnsc12,270 to 272 °C
23,NS(=O)(=O)c1ccc(Cl)cc1NC(=O)Nc1cccc(C(F)(F)F)c1,163 to 165 °C
24,NCCCCCCCCCCCCCCCCCC(=O)O,162 to 163 °C
25,CC1=NNS(=O)(=O)c2sc(Cl)cc21,182 to 184 °C
26,Cc1nc(-c2cccc(Nc3ccc(I)cc3[N+](=O)[O-])c2)cs1,137 to 138 °C

row,Structure (SMILES),melting point
1,CCOc1ccc([C@@H]2CCNC(=O)[C@H]2c2ccccc2)cc1 (relative stereo),161 to 162 °C
2,OCn1cc(-c2cc3nccnc3[nH]2)c2ccccc21,> 320 °C
3,COC(=O)COc1ccc(-c2c(Br)ccc3sc4ccccc4c23)cc1,122 °C
4,COc1ccc(C2=C(Cl)C(=O)C2)cc1,96 to 98 °C
5,CCCc1ccc(S(=O)(=O)Nc2ccc3nc(C)ccc3c2)cc1,174 °C
6,N#CC1CN1C(=O)NSC(F)(F)F (stereo not drawn),83 to 85 °C
7,CCOC(=O)C(=O)CC(=O)c1ccc2c(c1)c(=O)c(CCC(=O)O)cn2Cc1ccc(F)cc1,177 to 180 °C
8,CCC(C)C1C(=O)NC(=S)N1C(C)=O (stereo not drawn),132 to 133 °C
9,CCC(CO)(OC)c1ccc(-c2ccc(OC)cc2)cc1 (stereo not drawn),108 to 109 °C
10,CCCN(CCC)C(=O)Cn1c(-c2ccc(Cl)cc2)nc2cccnc21,156 to 157 °C
11,COc1ccc(C(=O)Nc2cnc3c(c2)CN(Cc2ccccc2)CC3)cc1Br,214 to 215 °C
12,CCOC(=O)C1=C(C)NC(C(OCC)OCC)=C(C(=O)OCC)C1c1cc([N+](=O)[O-])ccc1Cl (stereo not drawn),117 to 118 °C
13,CCOC(=O)c1oc(SC)c2c1CCc1sc(-c3ccccc3)nc1-2,170 to 171 °C
14,CCOC(=O)c1cn(C(=O)c2ccccc2)c2sc(-c3ccc(OC)cc3)c(C)c2c1=O,110 to 112 °C
15,COc1ccc(C[C@@H](CO)NC(=O)c2ccnc(-n3nc(-c4cccnc4)c4ccccc4c3=O)c2)cc1OC,135 to 137 °C
16,CCCCn1c(=O)c(C(=O)Nc2ccncc2)c(O)c2sccc21,212 to 216 °C
17,N#Cc1cnc2sc(-c3ccccc3)cc2c1NCc1ccc2[nH]ccc2c1,219 to 221 °C
18,CCCc1nc2cnccc2s1,44 to 47 °C
19,COc1ccc(/C=C/c2ccccc2[N+](=O)[O-])c([N+](=O)[O-])c1,142 to 143 °C
20,COc1ccc(N2CCOCC2)cc1NC(=S)C(=O)Nc1ccc(F)cc1,206 to 208 °C
21,CCCOC1=Nc2ccc(Cl)cc2C(=CCCN)N1CCC,50 to 51 °C
22,ClCc1nc2cc(Cl)cc(Cl)c2o1,52 to 53 °C
23,COc1ccc2c(c1)NC(=O)C(Cl)(Cl)CC2,148 to 150 °C
24,CC1(C)CC(=O)N(C(=O)OCc2ccccc2)CC(C)(C)N1,86 to 88 °C
25,OP(O)C(NC(c1ccccc1)c1ccccc1)c1cccnc1 (stereo not drawn),129 to 132 °C
26,CCc1ccc(NC(C)=O)cc1,94 to 96 °C

row,Structure (SMILES),melting point
1,Nc1cc(Cl)cc2c1NCCC2=O,142 to 144 °C
2,CCOC(=O)c1cn(-c2nc(NC(C)(C)C)c(F)cc2F)c2c(Cl)c(F)c(F)c([N+](=O)[O-])c2c1=O,215 to 217 °C
3,CCOC(=O)N1CCN(c2ccc(-n3cc[nH]c3=O)cc2)CC1,196 °C
4,Oc1cccc(C#Cc2ccc(C(F)(F)F)cc2)c1,131 to 132 °C
5,COc1cc(CO)c2oc(-c3ccc(OC)c(F)c3)cc2c1,128 to 130 °C
6,CCOc1ccc2c(c1)C(C)(c1cc(C(=O)N3CC4CCN(C)C4C3)ccc1Cl)C(=O)N2S(=O)(=O)c1ccc(C(=O)NC(C)(C)C)cc1OC (stereo not drawn),130 °C
7,CCOC(=O)c1c(C)nc2sc3c(c2c1-c1ccccc1)CCCC3,118 to 120 °C
8,CC(C)Oc1ccc(SCCSc2ccc(OC(C)C)cc2)cc1,115 to 116 °C
9,CCN1CCc2cc(Nc3ncc(Cl)c(Nc4ccc(N5CCOCC5)cc4OC)n3)c(OC)cc2CC1=O,212 to 214 °C
10,Cc1ccccc1-c1cnc(Nc2ccccn2)s1,155 to 160 °C
11,O=C(OC1CCCCC1)c1ncn2c1[C@@H]1CCCN1C(=O)c1c(Br)cccc1-2,167 to 168 °C
12,COC(=O)C(C)(C)Cc1ccc2oc(-c3nc(C(C)(C)C)cs3)cc2c1,42 to 43 °C
13,COc1ccc(N2CCN(c3c(C)c(C)c4c(c3C)CC(C)O4)CC2)cc1C (stereo not drawn),141 to 142 °C
14,COc1cc2c(cc1OCc1ccccc1)CCCCC2=O,95 to 96 °C
15,COc1ncnc(-c2cc([N+](=O)[O-])c(C#N)cc2F)c1Cl,161 to 162 °C
16,CC(C)(C)OC(=O)NC(Cc1ccccc1)C(O)CNCC(O)C(Cc1ccccc1)NC(=O)C(O)(CO)C(C)(C)C (stereo not drawn),84 to 86 °C
17,CN(CCCCCCCC(F)(F)C(F)(F)F)CCCCCC1Cc2cc(O)ccc2C2C(F)CC3(C)C(O)CCC3C12 (stereo not drawn),11 °C
18,COc1ccc(C2(O)CCCN(Cc3ccccc3)C2)cc1 (stereo not drawn),58 °C
19,CCOC(=O)c1cc2c3ccccc3n(Cc3ccccc3)c2c(C)n1,155 to 156 °C
20,Fc1ccc(-c2cc(C(F)(F)F)n[nH]2)c(F)c1,157 to 158 °C
21,CCc1nc(-c2cccc(C)c2)c(-c2ccnc(NCC3CCCCC3)c2)s1,74 to 75 °C
22,N#Cc1ccccc1C(=O)c1ccc(S)cc1,102 °C
23,COc1ccc2c(c1)C(=O)C(C(=O)O)C(c1ccccc1)=N2 (stereo not drawn),> 300 °C
24,CCC(=O)c1cn(-c2c(Cl)cc(C(F)(F)F)cc2Cl)nc1C#N,143 °C
25,CC(C)Cn1c(OCc2ccccc2)noc1=O,53 to 60 °C
